# Test results from US11453683B1, “KRas G12D inhibitors” (Mirati Therapeutics, Inc., priority 2019, dated 2022).
# Where a name gives a salt, the structure may show the parent alone.
# Tested on: KRas G12D-mediated phosphorylation of ERK
# Experiment: Inhibition of KRas G12D-mediated phosphorylation of ERK in AGS cells
# Assay type: cell-based
# Details: Homo sapiens; AGS cells expressing G12D, 3 hours, phospho-ERK normalized to GAPDH
# Summary of the method: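 Fixed, methanol-permeabilized; phospho-ERK (Thr202/Tyr204) by in-cell immunofluorescence normalized to GAPDH. Percent of DMSO control, IC50 by 4-parameter fit.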
row,Structure (SMILES),IC50
1,"Cc1c(Cl)cccc1-c1ncc2c(N3C[C@H]4CC[C@@H](C3)N4)nc(OCC34CCCN3CCC4)nc2c1F [Example 274, 4-((1R,5S)-3,8-diazabicyclo[3.2.1]octan-3-yl)-7-(3-chloro-2-methylphenyl)-8-fluoro-2-((hexahydro-1H-pyrrolizin-7a-yl)methoxy)pyrido[4,3-d]pyrimidine]",4.71 µM
2,"Fc1c(-c2cccc3cccc(Br)c23)ncc2c(N3C[C@H]4CC[C@@H](C3)N4)nc(OCC34CCCN3CCC4)nc12 [Example 235, 4-((1R,5S)-3,8-diazabicyclo[3.2.1]octan-3-yl)-7-(8-bromonaphthalen-1-yl)-8-fluoro-2-((tetrahydro-1H-pyrrolizin-7a(5H)-yl)methoxy)pyrido[4,3-d]pyrimidine]",0.339 µM
3,"CCCOc1nc(N2C[C@H]3CC[C@@H](C2)N3)c2cnc(-c3cc(O)cc4ccccc34)c(F)c2n1 [Example 47, 4-(4-((1R,5S)-3,8-diazabicyclo[3.2.1]octan-3-yl)-8-fluoro-2-propoxypyrido[4,3-d]pyrimidin-7-yl)naphthalen-2-ol]",4.45 µM
4,"CNC(=O)OC[C@H]1CC[C@@]2(COc3nc(N4CC5CCC(C4)N5)c4cnc(-c5cccc6cccc(Cl)c56)c(F)c4n3)CCCN12 [Example 408, (7a-(((4-(3,8-diazabicyclo[3.2.1]octan-3-yl)-7-(8-chloronaphthalen-1-yl)-8-fluoropyrido[4,3-d]pyrimidin-2-yl)oxy)methyl)hexahydro-1H-pyrrolizin-3-yl)methyl methylcarbamate]",0.238 µM
5,"CC(C)c1ccc(O)cc1-c1ncc2c(N3CC4CCC(C3)N4)nc(OC[C@@]34CCCN3C[C@H](F)C4)nc2c1F (stereo in doubt) [Example 399, 3-(4-((1R,5S)-3,8-diazabicyclo[3.2.1]octan-3-yl)-8-fluoro-2-((2-fluorotetrahydro-1H-pyrrolizin-7a(5H)-yl)methoxy)pyrido[4,3-d]pyrimidin-7-yl)-4-isopropylphenol]",0.51 µM
6,"CO[C@@H]1CN2CCC[C@]2(COc2nc(N3C[C@H]4CC[C@@H](C3)N4)c3cnc(-c4cccc5cccc(Cl)c45)c(F)c3n2)C1 [Example 219, 4-((1R,5S)-3,8-diazabicyclo[3.2.1]octan-3-yl)-7-(8-chloronaphthalen-1-yl)-8-fluoro-2-((2-methoxytetrahydro-1H-pyrrolizin-7a(5H)-yl)methoxy)pyrido[4,3-d]pyrimidine bis-hydrochloride]",2.03 µM
7,"Fc1c(-c2cccc(Cl)c2C2CC2)ncc2c(N3CC4CCC(C3)N4)nc(OCC34CCCN3C[C@H](F)C4)nc12 (mixture of isomers) [Example 342, 4-((1R,5S)-3,8-diazabicyclo[3.2.1]octan-3-yl)-7-(3-chloro-2-cyclopropylphenyl)-8-fluoro-2-((2-fluorotetrahydro-1H-pyrrolizin-7a(5H)-yl)methoxy)pyrido[4,3-d]pyrimidine]",1 µM
8,"Cc1c(-c2cc(O)cc3ccccc23)ncc2c(N3C[C@H]4CC[C@@H](C3)N4)nc(OC[C@@H]3CCCN3C)nc12 [Example 190, 4-(4-((1R,5S)-3,8-diazabicyclo[3.2.1]octan-3-yl)-8-methyl-2-(((S)-1-methylpyrrolidin-2-yl)methoxy)pyrido[4,3-d]pyrimidin-7-yl)naphthalen-2-ol]",16.3 µM
9,"Oc1cc(-c2ncc3c(N4C[C@H]5CC[C@@H](C4)N5)ncnc3c2F)c2ccccc2c1 [Example 181, 4-(4-((1R,5S)-3,8-diazabicyclo[3.2.1]octan-3-yl)-8-fluoropyrido[4,3-d]pyrimidin-7-yl)naphthalen-2-ol]",12.8 µM
10,"COCCO[C@@H]1C[C@@H](COc2nc(N3C[C@H]4CC[C@@H](C3)N4)c3cnc(-c4cccc5cccc(Cl)c45)c(F)c3n2)N(C)C1 [Example 202, 4-((1R,5S)-3,8-diazabicyclo[3.2.1]octan-3-yl)-7-(8-chloronaphthalen-1-yl)-8-fluoro-2-(((2S,4R)-4-(2-methoxyethoxy)-1-methylpyrrolidin-2-yl)methoxy)pyrido[4,3-d]pyrimidine]",10.2 µM
11,"CSc1cccc2cccc(-c3ncc4c(N5C[C@H]6CC[C@@H](C5)N6)nc(OCC56CCCN5CCC6)nc4c3F)c12 [Example 199, 4-((1R,5S)-3,8-diazabicyclo[3.2.1]octan-3-yl)-8-fluoro-7-(8-(methylthio)naphthalen-1-yl)-2-((tetrahydro-1H-pyrrolizin-7a(5H)-yl)methoxy)pyrido[4,3-d]pyrimidine]",0.465 µM
12,"CN(C)C(=O)NC[C@H]1CC[C@@]2(COc3nc(N4CC5CCC(C4)N5)c4cnc(-c5cccc6cccc(Cl)c56)c(F)c4n3)CCCN12 [Example 412, 3-((7a-(((4-(3,8-diazabicyclo[3.2.1]octan-3-yl)-7-(8-chloronaphthalen-1-yl)-8-fluoropyrido[4,3-d]pyrimidin-2-yl)oxy)methyl)hexahydro-1H-pyrrolizin-3-yl)methyl)-1,1-dimethylurea]",4.78 µM
13,"C=Cc1cccc2cccc(-c3ncc4c(N5C[C@H]6CC[C@@H](C5)N6)nc(OC[C@@H]5CCCN5C)nc4c3F)c12 [Example 201, 4-((1R,5S)-3,8-diazabicyclo[3.2.1]octan-3-yl)-8-fluoro-2-(((S)-1-methylpyrrolidin-2-yl)methoxy)-7-(8-vinylnaphthalen-1-yl)pyrido[4,3-d]pyrimidine]",13.9 µM
14,"Oc1cc(-c2ncc3c(N4C[C@H]5CC[C@@H](C4)N5)nc(N4CCCC4)nc3c2F)c2ccccc2c1 [Example 118, 4-(4-((1R,5S)-3,8-diazabicyclo[3.2.1]octan-3-yl)-8-fluoro-2-(pyrrolidin-1-yl)pyrido[4,3-d]pyrimidin-7-yl)naphthalen-2-ol 2,2,2-trifluoroacetate]",> 16.7 µM
15,"Fc1c(-c2cccc3cccc(Cl)c23)ncc2c(N3C[C@H]4CC[C@@H](C3)N4)nc(OCC34CCCCN3CCC4)nc12 (stereo partly drawn) [Example 54, 4-((1R,5S)-3,8-diazabicyclo[3.2.1]octan-3-yl)-7-(8-chloronaphthalen-1-yl)-8-fluoro-2-((hexahydroindolizin-8a(1H)-yl)methoxy)pyrido[4,3-d]pyrimidine]",> 16.7 µM
16,"COCCCOc1nc(N2C[C@H]3CC[C@@H](C2)N3)c2cnc(-c3cc(O)cc4ccccc34)c(F)c2n1 [Example 68, 4-(4-((1R,5S)-3,8-diazabicyclo[3.2.1]octan-3-yl)-8-fluoro-2-(3-methoxypropoxy)pyrido[4,3-d]pyrimidin-7-yl)naphthalen-2-ol]",7.53 µM
17,"CCC1(N)CN(c2nc(N3C[C@H]4CC[C@@H](C3)N4)c3cnc(-c4cc(O)cc5ccccc45)c(F)c3n2)C1 [Example 126, 4-(2-(3-amino-3-ethylazetidin-1-yl)-4-((1R,5S)-3,8-diazabicyclo[3.2.1]octan-3-yl)-8-fluoropyrido[4,3-d]pyrimidin-7-yl)naphthalen-2-ol]",3.47 µM
18,"Fc1ccc2cccc(-c3ncc4c(N5C[C@H]6CC[C@@H](C5)N6)nc(OC[C@@]56CCCN5C[C@H](F)C6)nc4c3F)c2c1F [Example 430, 4-((1R,5S)-3,8-diazabicyclo[3.2.1]octan-3-yl)-7-(7,8-difluoronaphthalen-1-yl)-8-fluoro-2-(((2R,7aS)-2-fluorotetrahydro-1H-pyrrolizin-7a(5H)-yl)methoxy)pyrido[4,3-d]pyrimidine]",0.141 µM
19,"CC(C)Cn1ccnc1CCOc1nc(N2C[C@H]3CC[C@@H](C2)N3)c2cnc(-c3cc(O)cc4ccccc34)c(F)c2n1 [Example 85, 4-(4-((1R,5S)-3,8-diazabicyclo[3.2.1]octan-3-yl)-8-fluoro-2-(2-(1-isobutyl-1H-imidazol-2-yl)ethoxy)pyrido[4,3-d]pyrimidin-7-yl)naphthalen-2-ol]",> 16.7 µM
20,"NCC#Cc1cccc2cccc(-c3ncc4c(N5C[C@H]6CC[C@@H](C5)N6)nc(OCC56CCCN5CCC6)nc4c3F)c12 [Example 241, 3-(8-(4-((1R,5S)-3,8-diazabicyclo[3.2.1]octan-3-yl)-8-fluoro-2-((tetrahydro-1H-pyrrolizin-7a(5H)-yl)methoxy)pyrido[4,3-d]pyrimidin-7-yl)naphthalen-1-yl)prop-2-yn-1-amine]",> 16.7 µM
21,"Fc1cccc(-c2ncc3c(N4C[C@H]5CC[C@@H](C4)N5)nc(OCC45CCCN4CCC5)nc3c2F)c1OC(F)F [Example 302, 4-((1R,5S)-3,8-diazabicyclo[3.2.1]octan-3-yl)-7-(2-(difluoromethoxy)-3-fluorophenyl)-8-fluoro-2-((hexahydro-1H-pyrrolizin-7a-yl)methoxy)pyrido[4,3-d]pyrimidine]",1.99 µM
22,"Nc1cccc(CCOc2nc(N3C[C@H]4CC[C@@H](C3)N4)c3cnc(-c4cc(O)cc5ccccc45)c(F)c3n2)n1 [Example 139, 4-(2-(2-(6-aminopyridin-2-yl)ethoxy)-4-((1R,5S)-3,8-diazabicyclo[3.2.1]octan-3-yl)-8-fluoropyrido[4,3-d]pyrimidin-7-yl)naphthalen-2-ol]",5.25 µM
23,"Oc1cc(-c2ncc3c(N4C[C@H]5CC[C@@H](C4)N5)nc(OCCc4cccnc4)nc3c2F)c2ccccc2c1 [Example 106, 4-(4-((1R,5S)-3,8-diazabicyclo[3.2.1]octan-3-yl)-8-fluoro-2-(2-(pyridin-3-yl)ethoxy)pyrido[4,3-d]pyrimidin-7-yl)naphthalen-2-ol]",3.1 µM
24,"Nc1ccc(CCOc2nc(N3C[C@H]4CC[C@@H](C3)N4)c3cnc(-c4cccc5cccc(Cl)c45)c(F)c3n2)cn1 [Example 141, 5-(2-((4-((1R,5S)-3,8-diazabicyclo[3.2.1]octan-3-yl)-7-(8-chloronaphthalen-1-yl)-8-fluoropyrido[4,3-d]pyrimidin-2-yl)oxy)ethyl)pyridin-2-amine]",> 16.7 µM
25,"Oc1cc(-c2ncc3c(N4C[C@H]5CC[C@@H](C4)N5)nc(OCC45CCCN4CCC5)nc3c2F)c2c(F)cccc2c1 [Example 367, 4-(4-((1R,5S)-3,8-diazabicyclo[3.2.1]octan-3-yl)-8-fluoro-2-((tetrahydro-1H-pyrrolizin-7a(5H)-yl)methoxy)pyrido[4,3-d]pyrimidin-7-yl)-5-fluoronaphthalen-2-ol tris(2,2,2-trifluoroacetate)]",0.112 µM
26,"c1ccc2c(-c3cc4nc(OCC56CCCN5CCC6)nc(N5C[C@H]6CC[C@@H](C5)N6)c4cn3)cccc2c1 [Example 233, 4-((1R,5S)-3,8-diazabicyclo[3.2.1]octan-3-yl)-7-(naphthalen-1-yl)-2-((tetrahydro-1H-pyrrolizin-7a(5H)-yl)methoxy)pyrido[4,3-d]pyrimidine]",15.6 µM
